From ChEMBL document CHEMBL5260810, “Inhibition of bromodomain-containing protein 9 for the prevention of epigenetically-defined drug resistance” (Bioorg Med Chem Lett, 2017)
Active and inactive are the calls of the source.

How the values were obtained:
[1] = test system: BT-549; assay: Antiproliferative activity against human BT-549 cells assessed as reduction in colony formation up to 20 uM supplemented with fresh medium containing compound every 3 days for 9 days by MTT staining based clonogenic assay; format: functional, cell-based; details: time 9.0 day
[2] = test system: MDA-MB-231; assay: Antiproliferative activity against human MDA-MB-231 cells assessed as reduction in colony formation upto 20 uM supplemented with fresh medium containing compound every 3 days for 9 days by MTT staining based clonogenic assay; format: functional, cell-based; details: time 9.0 day
[3] = test system: A-375; assay: Antiproliferative activity against human A-375 cells assessed as reduction in colony formation up to 20 uM supplemented with fresh medium containing compound every 3 days for 9 days by MTT staining based clonogenic assay; format: functional, cell-based; details: time 9.0 day
[4] = test system: NCI-H1299; assay: Antiproliferative activity against human NCI-H1299 cells assessed as reduction in colony formation up to 20 uM supplemented with fresh medium containing compound every 3 days for 9 days by MTT staining based clonogenic assay; format: functional, cell-based; details: time 9.0 day
[5] = Cytotoxicity against human NCE-G 130 cells measured after 3 days; format: functional, cell-based; details: NCE-G 130, 72 h
[6] = Cytotoxicity against human OVCA 420 cells measured after 3 days; format: functional, cell-based; details: OVCA 420, 72 h
[7] = test system: SU-DHL-16; assay: Cytotoxicity against human SU-DHL-16 cells measured after 3 days; format: functional, cell-based; details: SU-DHL-16, 72 h
[8] = test system: NOMO-1; assay: Cytotoxicity against human NOMO-1 cells measured after 3 days; format: functional, cell-based; details: NOMO-1, 72 h
[9] = Cytotoxicity against human HS-Sultan cells measured after 3 days; format: functional, cell-based; details: 72 h
[10] = test system: ZR-75-1; assay: Cytotoxicity against human ZR-75-1 cells measured after 8 days; format: functional, cell-based; details: ZR-75-1, 192 h
[11] = test system: NCI-H647; assay: Cytotoxicity against human NCI-H647 cells measured after 3 days; format: functional, cell-based; details: NCI-H647, 72 h
[12] = test system: DB; assay: Cytotoxicity against human DB cells measured after 3 days; format: functional, cell-based; details: 72 h
[13] = Cytotoxicity against human Karpas-620 cells measured after 3 days; format: functional, cell-based; details: Karpas-620, 72 h
[14] = test system: CAL-85-1; assay: Cytotoxicity against human CAL-85-1 cells measured after 3 days; format: functional, cell-based; details: CAL-85-1, 72 h
[15] = test system: RPMI-8226; assay: Cytotoxicity against human RPMI-8226 cells measured after 3 days; format: functional, cell-based; details: RPMI-8226, 72 h
[16] = Cytotoxicity against human VP267 cells measured after 3 days; format: functional, cell-based; details: VP267, 72 h
[17] = Cytotoxicity against human EFM-192C cells measured after 8 days; format: functional, cell-based; details: 192 h
[18] = Cytotoxicity against human COV413A cells measured after 3 days; format: functional, cell-based; details: 72 h
[19] = Cytotoxicity against human EFM-192A cells measured after 3 days; format: functional, cell-based; details: 72 h
[20] = test system: Ramos; assay: Cytotoxicity against human Ramos cells measured after 3 days; format: functional, cell-based; details: 72 h
[21] = Cytotoxicity against human HLF cells measured after 3 days; format: functional, cell-based; details: 72 h
[22] = Cytotoxicity against human UKE-1 cells measured after 3 days; format: functional, cell-based; details: UKE1, 72 h
[23] = Cytotoxicity against human COV434 cells measured after 3 days; format: functional, cell-based; details: COV434, 72 h
[24] = test system: OCI-AML-5; assay: Cytotoxicity against human OCI-AML5 cells measured after 3 days; format: functional, cell-based; details: OCI-AML-5, 72 h
[25] = test system: LP-1; assay: Cytotoxicity against human LP-1 cells measured after 3 days; format: functional, cell-based; details: LP-1, 72 h
[26] = test system: EJM; assay: Cytotoxicity against human EJM cells measured after 3 days; format: functional, cell-based; details: 72 h
[27] = Cytotoxicity against human HCC15 cells after 8 days; format: functional, cell-based; details: HCC15, 192 h
[28] = test system: WSUDLCL2; assay: Cytotoxicity against human WSUDLCL2 cells measured after 3 days; format: functional, cell-based; details: WSUDLCL2, 72 h
[29] = test system: NCI-H2444; assay: Cytotoxicity against human NCI-H2444 cells measured after 3 days; format: functional, cell-based; details: NCI-H2444, 72 h
[30] = Cytotoxicity against human NCE-G 111 cells measured after 3 days; format: functional, cell-based; details: NCE-G 111, 72 h
[31] = Cytotoxicity against human KP-3L cells measured after 3 days; format: functional, cell-based; details: 72 h
[32] = test system: HCC1143; assay: Cytotoxicity against human HCC1143 cells measured after 3 days; format: functional, cell-based; details: HCC1143, 72 h
[33] = test system: TMD8; assay: Cytotoxicity against human TMD8 cells measured after 3 days; format: functional, cell-based; details: TMD8, 72 h
[34] = test system: ML-2; assay: Cytotoxicity against human ML-2 cells measured after 3 days; format: functional, cell-based; details: ML-2, 72 h
[35] = test system: SNU-387; assay: Cytotoxicity against human SNU-387 cells measured after 3 days; format: functional, cell-based; details: SNU-387, 72 h
[36] = test system: LN-18; assay: Cytotoxicity against human LN-18 cells measured after 3 days; format: functional, cell-based; details: LN-18, 72 h
[37] = test system: JIYOYE; assay: Cytotoxicity against human JIYOYE cells measured after 3 days; format: functional, cell-based; details: 72 h
[38] = Kinetic solubility of the compound; format: physicochemical; details: read-out: Kinetic_solubility
[39] = test system: NCI-H520; assay: Cytotoxicity against human NCI-H520 cells measured after 3 days; format: functional, cell-based; details: NCI-H520, 72 h
[40] = Cytotoxicity against human HCC89 cells measured after 3 days; format: functional, cell-based; details: HCC89, 72 h
[41] = Cytotoxicity against human NCE-G 122 cells measured after 3 days; format: functional, cell-based; details: NCE-G 122, 72 h
[42] = test system: Jurkat; assay: Cytotoxicity against human Jurkat cells measured after 3 days; format: functional, cell-based; details: 72 h
[43] = test system: NAMALVA; assay: Cytotoxicity against human NAMALVA cells measured after 3 days; format: functional, cell-based; details: 72 h
[44] = test system: SUM149PT; assay: Cytotoxicity against human SUM149PT cells measured after 3 days; format: functional, cell-based; details: 72 h
[45] = Cytotoxicity against human RMUG-S cells measured after 3 days; format: functional, cell-based; details: 72 h
[46] = test system: SNU-398; assay: Cytotoxicity against human SNU-398 cells measured after 3 days; format: functional, cell-based; details: SNU-398, 72 h
[47] = test system: OCI-AML2; assay: Cytotoxicity against human OCI-AML2 cells measured after 3 days; format: functional, cell-based; details: OCI-AML2, 72 h
[48] = test system: HCC2935; assay: Cytotoxicity against human HCC2935 cells after 8 days; format: functional, cell-based; details: HCC2935, 192 h
[49] = Cytotoxicity against human BM-1604 cells measured after 3 days; format: functional, cell-based; details: BM-1604, 72 h
[50] = test system: EB-3; assay: Cytotoxicity against human EB-3 cells measured after 3 days; format: functional, cell-based; details: EB-3, 72 h
[51] = Cytotoxicity against human COV504 cells measured after 3 days; format: functional, cell-based; details: COV504, 72 h
[52] = test system: KMS-12-PE; assay: Cytotoxicity against human KMS-12-PE cells measured after 3 days; format: functional, cell-based; details: 72 h
[53] = test system: OAW-28; assay: Cytotoxicity against human OAW28 cells measured after 3 days; format: functional, cell-based; details: OAW-28, 72 h
[54] = Cytotoxicity against human OVCA432 cells measured after 3 days; format: functional, cell-based; details: OVCA432, 72 h
[55] = test system: MDA-MB-415; assay: Cytotoxicity against human MDA-MB-415 cells measured after 8 days; format: functional, cell-based; details: MDA-MB-415, 192 h
[56] = Cytotoxicity against human OVSAHO cells measured after 3 days; format: functional, cell-based; details: 72 h
[57] = test system: HEL; assay: Cytotoxicity against human HEL cells measured after 3 days; format: functional, cell-based; details: 72 h
[58] = Cytotoxicity against human JHH-1 cells measured after 3 days; format: functional, cell-based; details: JHH1, 72 h
[59] = test system: MDA-MB-175-VII; assay: Cytotoxicity against human MDA-MB-175-VII cells measured after 3 days; format: functional, cell-based; details: 72 h
[60] = test system: TK-10; assay: Cytotoxicity against human TK-10 cells measured after 3 days; format: functional, cell-based; details: TK-10, 72 h

C/C=C/Cn1cc(-c2ccc(C(C)(C)O)cc2OC)c2cc[nH]c2c1=O
inactive: Activity [1] | Activity [2] | Activity [3] | Activity [4]

C/C=C/Cn1cc(-c2cc(OC)c(C(=O)N3CCOCC3)cc2OC)c2cc(C)[nH]c2c1=O
2 µM: IC50 [10] | IC50 [17] | IC50 [27] | IC50 [48] | IC50 [55]
5 µM: IC50 [5] | IC50 [6] | IC50 [7] | IC50 [8] | IC50 [9] | IC50 [11] | IC50 [12] | IC50 [13] | IC50 [14] | IC50 [15] | IC50 [16] | IC50 [18] | IC50 [19] | IC50 [20] | IC50 [21] | IC50 [22] | IC50 [23] | IC50 [24] | IC50 [25] | IC50 [26] | IC50 [28] | IC50 [29] | IC50 [30] | IC50 [31] | IC50 [32] | IC50 [33] | IC50 [34] | IC50 [35] | IC50 [36] | IC50 [37] | IC50 [39] | IC50 [40] | IC50 [41] | IC50 [42] | IC50 [43] | IC50 [44] | IC50 [45] | IC50 [46] | IC50 [47] | IC50 [49] | IC50 [50] | IC50 [51] | IC50 [52] | IC50 [53] | IC50 [54] | IC50 [56] | IC50 [57] | IC50 [58] | IC50 [59] | IC50 [60]
135 µM: solubility kinetic [38]
